Experiment [1] addresses T1, Pim-1 E124Q (Homo sapiens, UniProt P11309, E124Q).
T1 construct: hexahistidine tag (TEV-cleavable) (cleaved yes); made in house; host or cells: E. coli BL21(DE3)
In words: Inhibitor binding by temperature shift assay (SYPRO Orange). The conditions noted are these: Pim-1 E124Q 2 µM, compound 10 µM. The procedure:
(§1) Thermal melting experiments were carried out using an Mx3005p Real Time PCR machine (Stratagene). Proteins were buffered in 10 mM HEPES pH 7.5, 500 mM NaCl and assayed in a 96-well plate at a final concentration of 2 µM in 20 µl volume. Compounds were added at a final concentration of 10 µM. SYPRO Orange (Molecular Probes) was added as a fluorescence probe at a dilution of 1∶1000. […] Data was analysed as previously described.

The target of experiment [2] is T2, Pim-1 E135K (Homo sapiens, UniProt P11309, E135K).
T2 construct: hexahistidine tag (TEV-cleavable) (cleaved yes); made in house; host or cells: E. coli BL21(DE3)
The description is as above. The conditions noted are these: Pim-1 E135K 2 µM, compound 10 µM. The method, then:
as §1

Experiment [3] deals with T3, Pim-1 E142D (Homo sapiens, UniProt P11309, E142D).
T3 construct: hexahistidine tag (TEV-cleavable) (cleaved yes); made in house; host or cells: E. coli BL21(DE3)
The description is as above. The conditions noted are these: Pim-1 E142D 2 µM, compound 10 µM. The procedure:
as §1

The target in experiment [4] is T4, Pim-1 Y53H (Homo sapiens, UniProt P11309, Y53H).
T4 construct: hexahistidine tag (TEV-cleavable) (cleaved yes); made in house; host or cells: E. coli BL21(DE3)
Described as above. The conditions noted are these: Pim-1 Y53H 2 µM, compound 10 µM. The procedure: as §1

In experiment [5] the target is T5, Pim-1 wild type (Homo sapiens, UniProt P11309).
T5 construct: hexahistidine tag (TEV-cleavable) (cleaved yes); made in house; host or cells: E. coli BL21(DE3)
The experiment is described as above. The conditions noted are these: Pim-1 wild type 2 µM, compound 10 µM. The method, then:
as §1

Experiment [6] addresses T4, Pim-1 Y53H. In words: Caliper mobility shift kinase assay. In kind it is biochemical. The conditions noted are these: Y53H relative to Pim-1 wild type. The method, then:
(§2) Phosphorylation reaction was monitored using a coupled-enzyme assay in which ADP production is coupled to NADH oxidation by pyruvate kinase and lactate dehydrogenase. […] In the Caliper mobility shift assays kinase reactions were analyzed by microfluidic capillary electrophoresis. The final assay buffer was 50 mM HEPES, pH 7.5, 1 mM DTT, 0.02% Tween 20, 0.02% BSA, 10 mM beta-glycerophosphate, 0.01 mM Na3VO4, 0.6% DMSO, 8 mM MgCl2, 2 µM peptide and 0.2 nM kinase. The reactions were started by addition of substrate mix consisting of ATP and peptide substrate to kinase and inhibitor solution. ATP concentrations were adjusted to the Kmvalues of the specific Pim enzyme. After incubation for 60 min at 30°C reactions were terminated with 100 mM HEPES pH 7.5, 5% DMSO, 0.1% coating reagent (Caliper Lifescience) 10 mM EDTA pH 8.0, 0.015% Brij35. Levels of substrate and product were quantified by measuring the laser-induced fluorescence intensities of fluorescein labels of the peptide.

Experiment [7] deals with Pim-1 variants. The experiment in a line: Caliper mobility shift kinase assay. In kind it is biochemical, human. To be noted: exception K00487 and K00207a for Y53H. The procedure: as §2
The target in experiment [8] is T5, Pim-1 wild type. In kind it is biochemical. To be noted: ATP as substrate, wild type protein. The method, then:
as §2

For orientation: Km means the concentration of substrate that gives half-maximal velocity.

T5 sequence (P11309 whole entry): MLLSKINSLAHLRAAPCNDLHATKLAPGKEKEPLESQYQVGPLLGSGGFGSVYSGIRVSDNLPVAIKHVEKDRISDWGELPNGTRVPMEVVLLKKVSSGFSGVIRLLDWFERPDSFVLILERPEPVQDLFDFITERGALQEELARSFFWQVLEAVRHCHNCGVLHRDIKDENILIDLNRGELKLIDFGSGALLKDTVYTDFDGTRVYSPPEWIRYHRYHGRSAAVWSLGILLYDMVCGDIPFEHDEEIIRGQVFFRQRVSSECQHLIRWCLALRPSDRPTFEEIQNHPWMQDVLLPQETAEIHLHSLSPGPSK
T2 sequence (P11309 whole entry E135K): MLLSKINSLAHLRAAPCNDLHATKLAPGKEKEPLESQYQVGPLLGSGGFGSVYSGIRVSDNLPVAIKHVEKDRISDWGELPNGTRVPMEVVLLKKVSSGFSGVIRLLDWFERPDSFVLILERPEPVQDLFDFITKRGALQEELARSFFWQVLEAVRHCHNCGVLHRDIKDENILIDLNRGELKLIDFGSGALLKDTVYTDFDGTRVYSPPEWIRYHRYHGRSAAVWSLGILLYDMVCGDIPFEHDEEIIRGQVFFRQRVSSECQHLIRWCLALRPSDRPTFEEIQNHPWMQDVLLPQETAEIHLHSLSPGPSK
T1 sequence (P11309 whole entry E124Q): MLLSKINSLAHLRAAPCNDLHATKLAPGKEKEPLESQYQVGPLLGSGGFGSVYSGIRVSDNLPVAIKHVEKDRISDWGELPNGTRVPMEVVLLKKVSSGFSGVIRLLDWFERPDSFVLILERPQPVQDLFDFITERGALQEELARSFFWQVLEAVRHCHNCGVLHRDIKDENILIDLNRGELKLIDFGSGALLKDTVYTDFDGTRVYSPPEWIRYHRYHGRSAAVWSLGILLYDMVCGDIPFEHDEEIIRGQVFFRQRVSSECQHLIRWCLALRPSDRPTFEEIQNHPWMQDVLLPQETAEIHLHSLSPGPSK
T3 sequence (P11309 whole entry E142D): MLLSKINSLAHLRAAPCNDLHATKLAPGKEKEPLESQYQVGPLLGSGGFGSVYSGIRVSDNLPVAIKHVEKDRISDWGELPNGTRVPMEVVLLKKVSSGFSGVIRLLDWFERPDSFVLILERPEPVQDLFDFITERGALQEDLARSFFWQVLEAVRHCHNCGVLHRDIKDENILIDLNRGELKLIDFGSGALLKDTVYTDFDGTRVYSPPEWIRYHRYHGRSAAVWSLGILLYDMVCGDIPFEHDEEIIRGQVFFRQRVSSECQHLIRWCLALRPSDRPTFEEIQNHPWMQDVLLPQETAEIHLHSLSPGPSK
T4 sequence (P11309 whole entry Y53H): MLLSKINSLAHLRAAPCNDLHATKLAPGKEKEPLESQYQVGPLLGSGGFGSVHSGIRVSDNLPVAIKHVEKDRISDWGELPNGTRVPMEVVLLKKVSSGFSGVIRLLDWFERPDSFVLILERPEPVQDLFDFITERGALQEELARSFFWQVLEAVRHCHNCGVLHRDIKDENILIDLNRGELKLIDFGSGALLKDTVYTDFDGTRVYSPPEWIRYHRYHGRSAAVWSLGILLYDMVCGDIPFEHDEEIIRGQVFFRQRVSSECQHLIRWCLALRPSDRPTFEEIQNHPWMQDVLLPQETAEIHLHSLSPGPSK

Take `CCC(CO)Nc1ccc2ncc(-c3cccc(OC(F)(F)F)c3)n2n1` (centres unmarked) [K00487]: the ΔTm was 7.6 K in experiment [1]; 7.5 K in experiment [2]; 8.1 K in experiment [3]; 7.0 K in experiment [4]; 7.7 K in experiment [5]. Also, in experiment [6], the “fold increase of IC50 versus wild type” value was determined as 1.8 fold. In experiment [7], the “IC50 for Pim-1 variants compared with wild type” value is on record as “closely similar”.
For the molecule `FC(F)(F)Oc1cccc(-c2cnc3ccc(NCC4CC4)nn23)c1` [K00520], the ΔTm in experiment [1] is given as 5.0 K; in experiment [2] it was 6.5 K; in experiment [3], 6.4 K; in experiment [4] it was 5.5 K; in experiment [5], 6.8 K.
On the same counts, the results for `CC(=O)c1cccc(-c2cnc3ccc(N[C@H](CO)C(C)C)nn23)c1` [K00518] are 4.3 K, 6.4 K, 5.3 K, 4.6 K and 5.6 K.
In the case of `CC(C)[C@@H](CO)Nc1ccc2ncc(-c3cccc(Cl)c3)n2n1` [K00514], the ΔTm came to 6.1 K in experiment [1]; 7.5 K in experiment [2]; 6.2 K in experiment [3]; 5.6 K in experiment [4]; 6.1 K in experiment [5].
Consider `CC(C)[C@@H](CO)Nc1ccc2ncc(-c3cccc(C(F)(F)F)c3)n2n1` [K00516], for which the ΔTm in experiment [1] stood at 8.2 K; in experiment [2], 9.0 K; in experiment [3], 7.7 K; in experiment [4], 6.9 K; in experiment [5] it was 8.2 K.
Turning to `CC(C)[C@@H](CO)Nc1ccc2ncc(-c3cccc(OC(F)(F)F)c3)n2n1` [K00512], the ΔTm in experiment [1] is on record as 8.5 K; in experiment [2], 8.9 K; in experiment [3] it was 8.8 K; in experiment [4], 8.1 K; in experiment [5], 8.4 K.
On the same counts, the results for `Clc1ccc(-c2cnc3ccc(NC4CCOCC4)nn23)cc1` [K00499] are 5.6 K, 6.0 K, 6.6 K, 5.9 K and 5.5 K.
Regarding `COCCNc1ccc2ncc(-c3cccc(Cl)c3)n2n1` [K00478], the ΔTm in experiment [1] is given as 4.9 K; in experiment [2], 5.9 K; in experiment [3], 4.8 K; in experiment [4], 4.5 K; in experiment [5] it was 6.0 K.
On the same counts, the results for `Cn1c2c(c3ccc(Cl)c(Cl)c31)C(C#N)C1(CCOCC1)NC2=O` (centres unmarked) [K01741a] are 3.3 K, 5.2 K, 3.3 K, 3.3 K and 5.1 K.
In the case of `Nc1ncnc2c1ncn2[C@@H]1O[C@H](COP(=O)(O)OP(=O)(O)OP(=O)(O)O)[C@@H](O)[C@H]1O` [ATP], the Km in experiment [8] stood at 205 µM.
Consider `CCN1CCC2(CC1)NC(=O)c1c(c3ccc(Cl)c(Cl)c3n1C)C2C#N` (centres unmarked) [K01786a], for which the ΔTm in experiment [1] stood at 7.2 K; in experiment [2] it was 8.2 K; in experiment [3] it was 8.6 K; in experiment [4], 8.2 K; in experiment [5] it was 8.4 K.
